Measurements from paper PMC3745465 (PLoS ONE, 2013).
Like-named read-outs stand apart in the source and are kept apart here. Values belong to the molecule of their own block, whether it stands above or below them.

Legend:
[1] = system: apical uptake transporter (AT); conditions: MDCK-MDR1-NKI; fitted
[2] = set-up: method as in earlier work; conditions: ref 18 19 20, cited from earlier work
P-gp [3] = biological target: T1, P-gp (Homo sapiens, UniProt P08183); conditions: MDCK-MDR1-NKI; fitted consensus value
T1 sequence (P08183 whole entry): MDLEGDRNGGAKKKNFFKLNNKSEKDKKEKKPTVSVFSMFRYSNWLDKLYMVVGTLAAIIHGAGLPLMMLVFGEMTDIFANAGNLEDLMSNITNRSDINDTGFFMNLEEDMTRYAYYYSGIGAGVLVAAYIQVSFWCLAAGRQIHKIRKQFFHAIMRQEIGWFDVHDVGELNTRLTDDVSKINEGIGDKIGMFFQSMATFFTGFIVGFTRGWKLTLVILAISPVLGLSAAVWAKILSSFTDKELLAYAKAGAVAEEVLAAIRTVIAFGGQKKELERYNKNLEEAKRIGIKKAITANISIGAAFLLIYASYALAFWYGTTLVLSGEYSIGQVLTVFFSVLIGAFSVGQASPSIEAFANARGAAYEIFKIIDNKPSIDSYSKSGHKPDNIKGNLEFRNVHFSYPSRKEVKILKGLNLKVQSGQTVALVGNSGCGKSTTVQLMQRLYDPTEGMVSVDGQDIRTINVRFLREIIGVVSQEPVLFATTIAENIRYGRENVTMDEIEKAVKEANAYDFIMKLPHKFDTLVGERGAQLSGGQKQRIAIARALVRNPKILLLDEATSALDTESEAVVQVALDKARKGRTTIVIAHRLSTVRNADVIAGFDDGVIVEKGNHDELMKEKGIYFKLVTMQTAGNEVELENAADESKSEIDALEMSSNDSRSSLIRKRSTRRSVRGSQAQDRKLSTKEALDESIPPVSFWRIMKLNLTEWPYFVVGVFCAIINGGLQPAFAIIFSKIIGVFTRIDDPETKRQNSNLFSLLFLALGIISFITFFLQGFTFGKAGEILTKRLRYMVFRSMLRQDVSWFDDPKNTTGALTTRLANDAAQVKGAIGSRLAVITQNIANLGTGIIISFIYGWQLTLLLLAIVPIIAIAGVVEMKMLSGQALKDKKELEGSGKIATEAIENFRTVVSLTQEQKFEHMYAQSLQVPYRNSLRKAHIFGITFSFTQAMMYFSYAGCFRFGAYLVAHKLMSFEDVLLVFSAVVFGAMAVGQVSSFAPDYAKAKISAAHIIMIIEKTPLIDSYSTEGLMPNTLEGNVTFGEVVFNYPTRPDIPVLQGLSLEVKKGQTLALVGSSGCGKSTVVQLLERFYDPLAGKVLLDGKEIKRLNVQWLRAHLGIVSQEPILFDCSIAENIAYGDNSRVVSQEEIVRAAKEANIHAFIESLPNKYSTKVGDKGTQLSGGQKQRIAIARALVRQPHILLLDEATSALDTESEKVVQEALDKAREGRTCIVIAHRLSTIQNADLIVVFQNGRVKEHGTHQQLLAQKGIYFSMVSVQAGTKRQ

in vitro = conditions: dog
[4] = system: basolateral digoxin uptake transporter; conditions: Caco-2; 10 µM digoxin B>A, 1 hr; Trel = 0.2
[5] = system: basolateral digoxin uptake transporter; conditions: CPT-B2; 10 µM digoxin B>A, 1 hr; Trel = 0.3
[6] = system: basolateral digoxin uptake transporter; conditions: MDCK-MDR1-NIH; 10 µM digoxin B>A, 1 hr; Trel = 0.6; listed as KCZ
P-gp [7] = biological target: T1, P-gp; assay: cell-based
[8] = mol drug per L lipid / mol drug per L aqueous buffer; 10 µM drug; 37°C
[9] = system: MDCK-MDR1-NKI confluent cell monolayers; conditions: nicardipine up to 100 µM; data not shown
[10] = MDCK-MDR1, with GF120918 2 µM, both chambers, Passive Permeability Coefficient at steady-state PAB, A>B, +GF120918
[11] = MDCK-MDR1, with GF120918 2 µM, both chambers, Passive Permeability Coefficient at steady-state PBA, B>A, +GF120918
[12] = MDCK-MDR1, with GF120918 2 µM, both chambers, passive permeability, direction not given

Structure (SMILES): CC(C)CN(C[C@@H](O)[C@H](Cc1ccccc1)NC(=O)O[C@H]1CCOC1)S(=O)(=O)c1ccc(N)cc1 [Amprenavir]
- Other Transporters kA, 1st order clearance through apical uptake transporter [1]: 350±30 0 s^−1

Structure (SMILES): C[C@H]1O[C@@H](O[C@H]2[C@@H](O)C[C@H](O[C@H]3[C@@H](O)C[C@H](O[C@H]4CC[C@@]5(C)[C@H](CC[C@@H]6[C@@H]5C[C@@H](O)[C@]5(C)[C@@H](C7=CC(=O)OC7)CC[C@]65O)C4)O[C@@H]3C)O[C@@H]2C)C[C@H](O)[C@@H]1O [Digoxin]
- aggregating compound or not ([2]; enzyme inhibition studies): not to be aggregating compounds
- Dissociation from P-gp into Apical Bilayer kr (P-gp [3]): (3±1)×10^+4 s^−1
- Efflux from P-gp into Apical Chamber k2 (P-gp [3]): 3 ± 1 s⁻¹
- Other Transporters kA, 1st order clearance through apical uptake transporter [1]: 40 ± 20 s⁻¹
- Papp (in vitro; [10]): 4 ± 1 ×10⁻⁶ cm/s
- Papp (in vitro; [11]): 5 ± 1 ×10⁻⁶ cm/s
- Papp (in vitro; [12]): < 10 ×10⁻⁶ cm/s

Structure (SMILES): CC(=O)N1CCN(c2ccc(OCC3COC(Cn4ccnc4)(c4ccc(Cl)cc4Cl)O3)cc2)CC1 (stereo not drawn) [Ketoconazole]
- aggregating compound or not ([2]; enzyme inhibition studies): not to be aggregating compounds
- KQB, effective association constant of inhibitor to basolateral digoxin uptake transporter [4]: (2±1)×10^6 M^−1
- KQB, effective association constant of inhibitor to basolateral digoxin uptake transporter [5]: (4±2)×10^6 M^−1
- Other Transporters kA, 1st order clearance through apical uptake transporter [1]: 730±70 0 s^−1
- KQB, effective association constant of inhibitor to basolateral digoxin uptake transporter [6]: (4±2)×10^5 M^−1

Structure (SMILES): CN(C)C(=O)C(CCN1CCC(O)(c2ccc(Cl)cc2)CC1)(c1ccccc1)c1ccccc1 [Loperamide]
- Kd (P-gp [7]): 200 µM
- Dissociation from P-gp into Apical Bilayer kr (P-gp [3]): (2±1)×10^+4 s^−1
- Efflux from P-gp into Apical Chamber k2 (P-gp [3]): 0.4 ± 0.08 s⁻¹
- Molar partition coefficient, Apical Outer Leaflet PC/SM/Chol (1∶1∶1) (mols), KAO [8]: 300±50
- Molar partition coefficient, Basolateral Outer Leaflet PC/Chol (2∶1) (mols), KBO [8]: 450±50
- Molar partition coefficient, Plasma Cytosolic Leaflet PE/PS/Chol (1∶1∶1) (mols), KPC [8]: 1500±250
- Papp (in vitro; MDCK-MDR1, Passive Permeability Coefficient at steady-state PAB, A>B, +GF120918): 32 ± 7 ×10⁻⁶ cm/s
- Papp (in vitro; MDCK-MDR1, Passive Permeability Coefficient at steady-state PBA, B>A, +GF120918): 32 ± 9 ×10⁻⁶ cm/s
- Papp (in vitro; MDCK-MDR1, passive permeability, direction not given): ~32 ×10⁻⁶ cm/s

- Dissociation from P-gp into Apical Bilayer kr (P-gp [3]): (4±2)×10^+3 s^−1
- Efflux from P-gp into Apical Chamber k2 (P-gp [3]): 3 ± 0.4 s⁻¹
- Papp (in vitro; [10]): 67 ± 5 ×10⁻⁶ cm/s
- Papp (in vitro; [11]): 67 ± 5 ×10⁻⁶ cm/s
Structure (SMILES): C=C[C@H]1C[N@@]2CC[C@H]1C[C@@H]2[C@@H](O)c1ccnc2ccc(OC)cc12 [Quinidine]

- Dissociation from P-gp into Apical Bilayer kr (P-gp [3]): (5±2.5)×10^+4 s^−1
- Efflux from P-gp into Apical Chamber k2 (P-gp [3]): 3 ± 0.5 s⁻¹
- Molar partition coefficient, Apical Outer Leaflet PC/SM/Chol (1∶1∶1) (mols), KAO [8]: 200±3
- Molar partition coefficient, Basolateral Outer Leaflet PC/Chol (2∶1) (mols), KBO [8]: 200±20
- Molar partition coefficient, Plasma Cytosolic Leaflet PE/PS/Chol (1∶1∶1) (mols), KPC [8]: 200±50
- Papp (in vitro; [10]): 5.5 ± 2 ×10⁻⁶ cm/s
- Papp (in vitro; [11]): 9 ± 1 ×10⁻⁶ cm/s
- Papp (in vitro; [12]): < 10 ×10⁻⁶ cm/s
Structure (SMILES): CC[C@]1(O)C[C@@H]2CN(CCc3c([nH]c4ccccc34)[C@@](C(=O)OC)(c3cc4c(cc3OC)N(C)[C@H]3[C@@](O)(C(=O)OC)[C@H](OC(C)=O)[C@]5(CC)C=CCN6CC[C@]43[C@@H]65)C2)C1 [Vinblastine]
- Other Transporters kA, 1st order clearance through apical uptake transporter [1]: 0 s⁻¹

Structure (SMILES): COC(=O)C1=C(C)NC(C)=C(C(=O)OCCN(C)Cc2ccccc2)C1c1cccc([N+](=O)[O-])c1 (stereo not drawn) [nicardipine]
- concentration above which large aggregates are made ([2]; enzyme inhibition studies): 30–40 µm
- concentration at which colloidal aggregates form [2]: about 30 µM
- PC plateau (large inhibitor concentration plateau) of digoxin transport inhibition [9]: significantly above zero
- shape of inhibition curve of digoxin transport [9]: sigmoidal
